Where a name gives a salt, the structure may show the parent alone.
Tests used:
[1] = tested on: Smn protein in SMA patient fibroblast cells (GM03813); assay: Smn protein assay in cultured cells (SMN HTRF); format: cell-based, human; conditions: SMA patient fibroblast cells, 48 hours; for maximum fold (Fold) increase of Smn protein: 7-point concentration data, fold relative to vehicle control; for EC1.5x for Smn protein expression: 7-point concentration curve, SMN HTRF, concentration producing 1.5 times Smn protein vs DMSO vehicle control
In short: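 Smn protein abundance in treated SMA fibroblasts was measured by HTRF after 48 h compound exposure. The reported EC1.5× is the concentration producing 1.5 times vehicle Smn levels.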

[2] = tested on: SMN2 minigene mRNA (SMN2-A minigene) in HEK293H cells; assay: SMN2 minigene mRNA splicing RT-qPCR assay in cultured cells; format: cell-based, human; conditions: Homo sapiens, HEK293-H; concentration increasing full length SMN2 mRNA 1.5-fold relative to vehicle-treated cells; HEK293H cells with SMN2-A minigene, 24 hours, 7-point concentration data; read-out: EC1.5x for production of full length SMN2 mRNA
In short: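 Potency reflects the concentration that lifts full-length SMN2 minigene mRNA 1.5-fold above vehicle in stably transfected HEK293H cells after 24 h of treatment. Transcript abundance came from RT-qPCR as (1+E)^−Ct, normalized to GAPDH; endogenous SMN1/SMN2 are not detected.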

SMILES | melting point | maximum fold (Fold) increase of Smn protein [1] | EC (1.5-fold increase) [2] [µM] | EC1.5x for Smn protein expression [1]
COc1ccc(-c2cc(=O)n3cc(N4CCC(N(C)C)CC4)ccc3c2)cc1F (as salt: acetate) [Compound 203, 7-[4-(dimethylamino)piperidin-1-yl]-2-(3-fluoro-4-methoxyphenyl)-4H-quinolizin-4-one] | 188 to 192 °C |  |  | 
O=c1cc(-c2cc(F)c(O)c(F)c2)nc2ccc(N3CCNCC3)cn12 (as salt: hydrochloride) [Compound 71, 2-(3,5-difluoro-4-hydroxyphenyl)-7-(piperazin-1-yl)-4H-pyrido[1,2-a]pyrimidin-4-one] | 290 °C (dec.) |  |  | 
COc1ccc(-c2cc(=O)n3cc(N4CCN(C)CC4)ccc3n2)cc1 [Compound 2, 2-(4-methoxyphenyl)-7-(4-methylpiperazin-1-yl)-4H-pyrido[1,2-a]pyrimidin-4-one] | 178 to 182 °C | ** (a fold increase between >1.2 and ≤1.35 is indicated by two stars (**)) | 1 to 3 | 
COc1ccc(-c2cc(=O)n3cc(N4CCN[C@H](C)C4)ccc3n2)cc1 [Compound 3, 2-(4-methoxyphenyl)-7-[(3R)-3-methylpiperazin-1-yl]-4H-pyrido[1,2-a]pyrimidin-4-one] | 152 to 154 °C | *** (a fold increase between >1.35 and ≤1.5 is indicated by three stars (***)) | 0.3 to 1 | ** (an EC1.5× between >1 μM and ≤3 μM is indicated by two stars (**))
COc1ccc(-c2cc(=O)n3cc(N4C[C@@H](C)N[C@@H](C)C4)ccc3n2)cc1 [Compound 4, 7-[(3R,5S)-3,5-dimethylpiperazin-1-yl]-2-(4-methoxyphenyl)-4H-pyrido[1,2-a]pyrimidin-4-one] | 185 to 187 °C | * (A maximum fold increase of ≤1.2 is indicated by one star (*)) | 1 to 3 | 
COc1ccc(-c2cc(=O)n3cc(N4CCCNCC4)ccc3n2)cc1 [Compound 5, 7-(1,4-diazepan-1-yl)-2-(4-methoxyphenyl)-4H-pyrido[1,2-a]pyrimidin-4-one] | 149 to 152 °C | * (A maximum fold increase of ≤1.2 is indicated by one star (*)) | 3 to 30 | 
CCc1nc(C)cn2nc(-c3cc(=O)n4cc(NCCN5CCOCC5)ccc4n3)cc12 [Compound 823, 2-(4-ethyl-6-methylpyrazolo[1,5-a]pyrazin-2-yl)-7-{[2-(morpholin-4-yl)ethyl]amino}-4H-pyrido[1,2-a]pyrimidin-4-one] |  | ** (a fold increase between >1.2 and ≤1.35 is indicated by two stars (**)) | 3 to 30 | 
CCc1nc(C)cn2nc(-c3cc(=O)n4cc(NCCN(C)C)ccc4n3)cc12 [Compound 824, 7-{[2-(dimethylamino)ethyl]amino}-2-(4-ethyl-6-methylpyrazolo[1,5-a]pyrazin-2-yl)-4H-pyrido[1,2-a]pyrimidin-4-one] |  | **** (a fold increase between >1.5 and ≤1.65 is indicated by four stars (****)) | 0.3 to 1 | * (An EC1.5× for Smn protein expression between >3 μM and ≤10 μM is indicated by one star (*))
CCc1nc(C)cn2nc(-c3cc(=O)n4cc(N(C)CCN(C)C)ccc4n3)cc12 [Compound 825, 7-{[2-(dimethylamino)ethyl](methyl)amino}-2-(4-ethyl-6-methylpyrazolo[1,5-a]pyrazin-2-yl)-4H-pyrido[1,2-a]pyrimidin-4-one] |  | ***** (a fold increase >1.65 is indicated by five stars (*****)) | 0.3 to 1 | ** (an EC1.5× between >1 μM and ≤3 μM is indicated by two stars (**))
CCc1nc(C)cn2nc(-c3cc(=O)n4cc(N(C)CCNC)ccc4n3)cc12 [Compound 826, 2-(4-ethyl-6-methylpyrazolo[1,5-a]pyrazin-2-yl)-7-{methyl[2-(methylamino)ethyl]amino}-4H-pyrido[1,2-a]pyrimidin-4-one] |  | ***** (a fold increase >1.65 is indicated by five stars (*****)) | 0.1 to 0.3 | ** (an EC1.5× between >1 μM and ≤3 μM is indicated by two stars (**))
Cc1cn2cc(-c3cc(=O)n4cc(N5CC[C@@H](N(C)C)C5)ccc4n3)cc(C)c2n1 [Compound 827, 7-[(3R)-3-(dimethylamino)pyrrolidin-1-yl]-2-(2,8-dimethylimidazo[1,2-a]pyridin-6-yl)-4H-pyrido[1,2-a]pyrimidin-4-one] |  | ***** (a fold increase >1.65 is indicated by five stars (*****)) | < 0.1 | *** (an EC1.5× between >0.3 μM and ≤1 μM is indicated by three stars (***))
Cc1cn2cc(-c3cc(=O)n4cc(N5CC[C@H](N(C)C)C5)ccc4n3)cc(C)c2n1 [Compound 828, 7-[(3S)-3-(dimethylamino)pyrrolidin-1-yl]-2-(2,8-dimethylimidazo[1,2-a]pyridin-6-yl)-4H-pyrido[1,2-a]pyrimidin-4-one] |  | ***** (a fold increase >1.65 is indicated by five stars (*****)) | < 0.1 | **** (an EC1.5x≤0.3 μM is indicated by four stars (****))
CCc1nc(C)cn2nc(-c3cc(=O)n4cc(OCCN(C)C)cc(C)c4n3)cc12 [Compound 829, 7-[2-(dimethylamino)ethoxy]-2-(4-ethyl-6-methylpyrazolo[1,5-a]pyrazin-2-yl)-9-methyl-4H-pyrido[1,2-a]pyrimidin-4-one] |  | ***** (a fold increase >1.65 is indicated by five stars (*****)) | 0.1 to 0.3 | ** (an EC1.5× between >1 μM and ≤3 μM is indicated by two stars (**))
CCc1nc(C)cn2nc(-c3cc(=O)n4cc(OCCN(C)C)ccc4n3)cc12 [Compound 830, 7-[2-(dimethylamino)ethoxy]-2-(4-ethyl-6-methylpyrazolo[1,5-a]pyrazin-2-yl)-4H-pyrido[1,2-a]pyrimidin-4-one] |  | ***** (a fold increase >1.65 is indicated by five stars (*****)) | < 0.1 | *** (an EC1.5× between >0.3 μM and ≤1 μM is indicated by three stars (***))
CCc1nc(C)cn2nc(-c3cc(=O)n4cc(OCC5CCNCC5)ccc4n3)cc12 [Compound 831, 2-(4-ethyl-6-methylpyrazolo[1,5-a]pyrazin-2-yl)-7-(piperidin-4-ylmethoxy)-4H-pyrido[1,2-a]pyrimidin-4-one] |  | **** (a fold increase between >1.5 and ≤1.65 is indicated by four stars (****)) | 0.1 to 0.3 | ** (an EC1.5× between >1 μM and ≤3 μM is indicated by two stars (**))
CCc1nc(C)cn2nc(-c3cc(=O)n4cc(OCCN5CCCCC5)ccc4n3)cc12 [Compound 832, 2-(4-ethyl-6-methylpyrazolo[1,5-a]pyrazin-2-yl)-7-[2-(piperidin-1-yl)ethoxy]-4H-pyrido[1,2-a]pyrimidin-4-one] |  | ***** (a fold increase >1.65 is indicated by five stars (*****)) | 0.1 to 0.3 | *** (an EC1.5× between >0.3 μM and ≤1 μM is indicated by three stars (***))
CCc1nc(C)cn2nc(-c3cc(=O)n4cc(OCCCN5CCOCC5)ccc4n3)cc12 [Compound 833, 2-(4-ethyl-6-methylpyrazolo[1,5-a]pyrazin-2-yl)-7-[3-(morpholin-4-yl)propoxy]-4H-pyrido[1,2-a]pyrimidin-4-one] |  | ***** (a fold increase >1.65 is indicated by five stars (*****)) | < 0.1 | ** (an EC1.5× between >1 μM and ≤3 μM is indicated by two stars (**))
CCc1nc(C)cn2nc(-c3cc(=O)n4cc(OCCCN(C)C)ccc4n3)cc12 [Compound 834, 7-[3-(dimethylamino)propoxy]-2-(4-ethyl-6-methylpyrazolo[1,5-a]pyrazin-2-yl)-4H-pyrido[1,2-a]pyrimidin-4-one] |  | ***** (a fold increase >1.65 is indicated by five stars (*****)) | < 0.1 | **** (an EC1.5x≤0.3 μM is indicated by four stars (****))
Cc1cn2nc(-c3cc(=O)n4cc(N5C[C@H]6CN(C)C[C@H]6C5)ccc4n3)cc2c(C)n1 [Compound 835, 2-(4,6-dimethylpyrazolo[1,5-a]pyrazin-2-yl)-7-[(3aR,6aS)-5-methylhexahydropyrrolo[3,4-c]pyrrol-2(1H)-yl]-4H-pyrido[1,2-a]pyrimidin-4-one] |  | ***** (a fold increase >1.65 is indicated by five stars (*****)) | < 0.1 | **** (an EC1.5x≤0.3 μM is indicated by four stars (****))
COc1ccc(-c2cc(=O)n3cc(C4=CCNCC4)cnc3n2)cc1OC [Cpd 353, 2-(3,4-dimethoxyphenyl)-7-(1,2,3,6-tetrahydropyridin-4-yl)-4H-pyrimido[1,2-a]pyrimidin-4-one] |  | ** (a fold increase between >1.2 and ≤1.35 is indicated by two stars (**)) | 0.1 to 0.3 | 
